Reference: patent US7087619B2, “Method for the treatment of urinary incontinence” (Endo Pharmaceuticals, Inc., priority 1995, dated 2006)

Tests used:
[1] = literature report; cited from earlier work
[2] = test system: female Sprague-Dawley rats; assay: Non-stop transvesical cystometrogram in urethane-anesthetized rats (continuous cystometry); format: in vivo
Description: Ten female Sprague-Dawley rats having a mean weight of 263±19 g were anesthetized with urethane (1.2 g/k, sc.). A midline incision was performed to expose the bladder and a 23G catheter was inserted into the bladder dome for the measurement of intravesical pressure. A non-stop transvesical cystometrogram, as described in J. Pharmacological. Methods, 15, pp. 157-167 (1986), was used, at a filling rate of 0.216 ml/min. of saline, to access the filling and voiding characteristics of the bladder. Through the continuous cystometry method thus afforded, consecutive micturition could be recorded. Dextromethorphan was given at intravenous does of: 1.0, 3.0, 10, 30, 50 mg/kg after the initial baseline micturition sequence was reliably measured for approximately 12 min. From these recordings the absolute values in maximum pressure obtained and the frequency of micturition was measured. A dose response curve illustrating the effect of dextromethorphan on the absolute micturition pressures in the range of 1-50 mg/kg is given in FIG. 1. Data given are mean and SE.

| Compound | frequency in micturition [1] | volume evoked micturition reflex ([2]; increasing intravenous doses 1.0-50 mg/kg, cystometrogram, anesthetized rats) | reduction in detrusor pressure ([2]; intravenous 10 mg/kg) [%] | frequency of micturition ([2]; intravenous 1-50 mg/kg, dose response, FIG. 2) | reduction in detrusor pressure ([2]; intravenous dose level of 3 mg/kg) | effect on detrusor pressure at high doses (initial increase before suppression) ([2]; intravenous doses higher than 10 mg/kg) | volume evoked micturition contractions ([2]; intravenous doses in the range of 10-30 mg/kg) |
| --- | --- | --- | --- | --- | --- | --- | --- |
| C[C@]12N[C@H](Cc3ccccc31)c1ccccc12 [MK-801] | increase in frequency in micturition | – | – | – | – | – | – |
| COc1ccc2c(c1)[C@@]13CCCC[C@H]1[C@@H](C2)N(C)CC3 [dextromethorphan, (+)-3-methoxy-N-methylmorphinan] | – | suppressed in a dose sensitive manner | 50 | decrements gradually with respect to dose | significant sustained reduction | bimodal, producing an initial increase in detrusor pressure before suppression | almost totally suppressed |
